Laboratory results: US9598446B2, “Amino compounds for treatment of complement mediated disorders” (priority 2014, dated 2017)
pIC50: −log10 of the molar value.

These molecules were tested against Human factor D (Homo sapiens (Human), UniProt P00746) (assay: Human Factor D Assay). Details: not given.
Assay type: biochemical

Human factor D, sequence (P00746 26-253): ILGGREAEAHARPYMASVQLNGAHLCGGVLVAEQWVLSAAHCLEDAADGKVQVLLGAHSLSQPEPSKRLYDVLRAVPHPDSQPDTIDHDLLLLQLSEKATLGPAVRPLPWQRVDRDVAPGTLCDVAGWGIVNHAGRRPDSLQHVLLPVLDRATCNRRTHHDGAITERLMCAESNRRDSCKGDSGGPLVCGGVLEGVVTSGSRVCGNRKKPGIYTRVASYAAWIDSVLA

`CC(=O)c1cn(CC(=O)N2C[C@H](F)C[C@H]2C(=O)NCc2cccc(Cl)c2F)c2cc(N(CC(=O)N3C[C@H](F)C[C@H]3C(=O)NCc3cccc(Cl)c3F)S(C)(=O)=O)ccc12` [Compound 1, (2S,4R)-1-(2-(N-(3-acetyl-1-(2-((2S,4R)-2-(3-chloro-2-fluorobenzyl-carbamoyl)-4-fluoropyrrolidin-1-yl)-2-oxoethyl)-1H-indol-6-yl)methylsulfonamido)acetyl)-N-(3-chloro-2-fluorobenzyl)-4-fluoropyrrolidine-2-carboxamide] and `CC(=O)c1cn(CC(=O)N2C[C@H](F)C[C@H]2C(=O)NCc2nc3ccccc3s2)c2ccc(Nc3cncnc3)cc12` [Compound 16, (2S,4R)-1-(2-(3-acetyl-5-(pyrimidin-5-ylamino)-1H-indol-yl)acetyl)-N-(benzo[d]thiazol-2-ylmethyl)-4-fluoropyrrolidine-2-carboxamide] fall in the same range of pIC50: 5.00 to 6.00 for the first, 5.00 to 6.00 for the second.

`CNC(=O)[C@@H]1C[C@@H](F)CN1C(=O)Cn1cc(C(C)=O)c2cc(Nc3cncnc3)ccc21` [Compound 20, (2S,4R)-1-(2-(3-acetyl-5-(pyrimidin-5-ylamino)-1H-indol-1-yl)acetyl)-4-fluoro-N-methylpyrrolidine-2-carboxamide] showed a pIC50 of 5.00 to 6.00.

Same assay, conditions: human factor D 80 nM, substrate Z-L-Lys-SBz1 and DTNB 100 μM each, pH 7.5; read-out: IC50

`CC(=O)c1cn(CC(=O)N2C[C@H](F)C[C@H]2C(=O)NCc2cccc(Cl)c2F)c2cc(NS(=O)(=O)C(F)(F)F)ccc12` [Compound 2, (2S,4R)-1-(2-(3-acetyl-6-(trifluoromethylsulfon-amido)-1H-indol-1-yl)acetyl)-N-(3-chloro-2-fluorobenzyl)-4-fluoropyrrolidine-2-carboxamide] and `CC(=O)c1cn(CC(=O)N2C[C@H](F)C[C@H]2C(=O)N[C@H](CO)c2cccc(Cl)c2F)c2ccc(Nc3cncnc3)cc12` [Compound 7, (2S,4R)-1-(2-(3-acetyl-5-(pyrimidin-5-ylamino)-1H-indol-1-yl)acetyl)-N-((S)-1-(3-chloro-2-fluorophenyl)-2-hydroxyethyl)-4-fluoropyrrolidine-2-carboxamide] cannot be ordered by pIC50: over 6.00 for the first, over 6.00 for the second.

`CC(=O)c1cn(CC(=O)N2C[C@H](F)C[C@H]2C(=O)Nc2cccc(-c3ccccc3Cl)c2F)c2ccc(Nc3cncnc3)cc12` [Compound 3, (2S,4R)-1-(2-(3-acetyl-5-(pyrimidin-5-ylamino)-1H-indol-1-yl)acetyl)-N-(2′-chloro-2-fluorobiphenyl-3-yl)-4-fluoropyrrolidine-2-carboxamide] and `NC(=O)c1nn(CC(=O)N2C[C@H](F)C[C@H]2C(=O)Nc2cccc(-c3ccccc3Cl)c2F)c2ccc(Nc3cncnc3)cc12` [Compound 10, 1-(2-((2S,4R)-2-(2′-chloro-2-fluorobiphenyl-3-ylcarbamoyl)-4-fluoropyrrolidin-1-yl)-2-oxoethyl)-5-(pyrimidin-5-ylamino)-1H-indazole-3-carboxamide] cannot be ordered by pIC50: over 6.00 for the first, over 6.00 for the second.

`CC(=O)c1cn(CC(=O)N2C[C@H](F)C[C@H]2C(=O)Nc2cccc(Br)n2)c2ccc(Nc3cncnc3)cc12` [Compound 4, (2S,4R)-1-(2-(3-acetyl-5-(pyrimidin-5-ylamino)-1H-indol-1-yl)acetyl)-N-(6-bromopyridin-2-yl)-4-fluoropyrrolidine-2-carboxamide] and `CC(=O)c1cn(CC(=O)N2C[C@H](F)C[C@H]2C(=O)Nc2cccc(Cl)n2)c2ccc(Nc3cncnc3)cc12` [Compound 6, (2S,4R)-1-(2-(3-acetyl-5-(pyrimidin-5-ylamino)-1H-indol-1-yl)acetyl)-N-(6-chloropyridin-2-yl)-4-fluoropyrrolidine-2-carboxamide] cannot be ordered by pIC50: over 6.00 for the first, over 6.00 for the second.

`CC(=O)c1cn(CC(=O)N2C[C@H](F)C[C@H]2C(=O)N[C@@H](CO)c2cccc(Cl)c2F)c2ccc(Nc3cncnc3)cc12` [Compound 8, (2S,4R)-1-(2-(3-acetyl-5-(pyrimidin-5-ylamino)-1H-indol-1-yl)acetyl)-N-((R)-1-(3-chloro-2-fluorophenyl)-2-hydroxyethyl)-4-fluoropyrrolidine-2-carboxamide] and `CC(=O)c1cn(CC(=O)N2C[C@H](F)C[C@H]2C(=O)NCc2cccc(Cl)c2)c2ccc(Nc3cncnc3)cc12` [Compound 19, (2S,4R)-1-(2-(3-acetyl-5-(pyrimidin-5-ylamino)-1H-indol-1-yl)acetyl)-N-(3-chlorobenzyl)-4-fluoropyrrolidine-2-carboxamide] cannot be ordered by pIC50: over 6.00 for the first, over 6.00 for the second.

`NC(=O)c1nn(CC(=O)N2C[C@H](F)C[C@H]2C(=O)Nc2cccc(-c3ccccc3Cl)c2F)c2ccc(Nc3cccnn3)cc12` [Compound 9, 1-(2-((2S,4R)-2-(2′-chloro-2-fluorobiphenyl-3-ylcarbamoyl)-4-fluoropyrrolidin-1-yl)-2-oxoethyl)-5-(pyridazin-3-ylamino)-1H-indazole-3-carboxamide] and `N#Cc1cnc(Nc2ccc3c(c2)c(C(N)=O)nn3CC(=O)N2C[C@H](F)C[C@H]2C(=O)Nc2cccc(-c3ccccc3Cl)c2F)nc1` [Compound 13, 1-(2-((2S,4R)-2-(2′-chloro-2-fluorobiphenyl-3-ylcarbamoyl)-4-fluoropyrrolidin-1-yl)-2-oxoethyl)-5-(5-cyanopyrimidin-2-ylamino)-1H-indazole-3-carboxamide] cannot be ordered by pIC50: over 6.00 for the first, over 6.00 for the second.

`NC(=O)c1nn(CC(=O)N2C[C@H](F)C[C@H]2C(=O)Nc2cccc(Cl)n2)c2ccc(Nc3cccnn3)cc12` [Compound 11, 1-(2-((2S,4R)-2-(6-chloropyridin-2-ylcarbamoyl)-4-fluoropyrrolidin-1-yl)-2-oxoethyl)-5-(pyridazin-3-ylamino)-1H-indazole-3-carboxamide] and `NC(=O)c1nn(CC(=O)N2C[C@H](F)C[C@H]2C(=O)Nc2cccc(Cl)n2)c2ccc(Nc3cncnc3)cc12` [Compound 12, 1-(2-((2S,4R)-2-(6-chloropyridin-2-ylcarbamoyl)-4-fluoropyrrolidin-1-yl)-2-oxoethyl)-5-(pyrimidin-5-ylamino)-1H-indazole-3-carboxamide] cannot be ordered by pIC50: over 6.00 for the first, over 6.00 for the second.

`NC(=O)c1nn(CC(=O)N2C[C@H](F)C[C@H]2C(=O)Nc2cccc(-c3ccccc3Cl)c2F)c2ccc(Nc3cnc(C(F)(F)F)nc3)cc12` [Compound 14, 1-(2-((2S,4R)-2-(2′-chloro-2-fluorobiphenyl-3-ylcarbamoyl)-4-fluoropyrrolidin-1-yl)-2-oxoethyl)-5-(2-(trifluoromethyl)pyrimidin-5-ylamino)-1H-indazole-3-carboxamide] and `CC(=O)c1cn(CC(=O)N2C[C@H](F)C[C@H]2C(=O)Nc2nc(-c3ccccc3Cl)ns2)c2ccc(Nc3cncnc3)cc12` [Compound 29, (2S,4R)-1-(2-(3-acetyl-5-(pyrimidin-5-ylamino)-1H-indol-1-yl)acetyl)-N-(3-(2-chlorophenyl)-1,2,4-thiadiazol-5-yl)-4-fluoropyrrolidine-2-carboxamide] cannot be ordered by pIC50: over 6.00 for the first, over 6.00 for the second.

`CC(=O)c1cn(CC(=O)N2C[C@H](F)C[C@H]2C(=O)NCc2ccccn2)c2ccc(Nc3cncnc3)cc12` [Compound 17, (2S,4R)-1-(2-(3-acetyl-5-(pyrimidin-5-ylamino)-1H-indol-1-yl)acetyl)-4-fluoro-N-(pyridin-2-ylmethyl)pyrrolidine-2-carboxamide] and `CC(=O)c1cn(CC(=O)N2C[C@H](F)C[C@H]2C(=O)NCc2cc(F)cc(Cl)c2)c2ccc(Nc3cncnc3)cc12` [Compound 18, (2S,4R)-1-(2-(3-acetyl-5-(pyrimidin-5-ylamino)-1H-indol-1-yl)acetyl)-N-(3-chloro-5-fluorobenzyl)-4-fluoropyrrolidine-2-carboxamide] cannot be ordered by pIC50: over 6.00 for the first, over 6.00 for the second.

`CC(=O)c1cn(CC(=O)N2C[C@H](F)C[C@H]2C(=O)Nc2cncc(Br)c2)c2ccc(Nc3cncnc3)cc12` [Compound 21, (2S,4R)-1-(2-(3-acetyl-5-(pyrimidin-5-ylamino)-1H-indol-1-yl)acetyl)-N-(5-bromopyridin-3-yl)-4-fluoropyrrolidine-2-carboxamide] and `CC(=O)c1cn(CC(=O)N2C[C@H](F)C[C@H]2C(=O)Nc2cncc(Cl)c2)c2ccc(Nc3cncnc3)cc12` [Compound 22, (2S,4R)-1-(2-(3-acetyl-5-(pyrimidin-5-ylamino)-1H-indol-1-yl)acetyl)-N-(5-chloropyridin-3-yl)-4-fluoropyrrolidine-2-carboxamide] cannot be ordered by pIC50: over 6.00 for the first, over 6.00 for the second.

`CCN1Cc2ccc(NC(=O)[C@@H]3C[C@@H](F)CN3C(=O)Cn3cc(C(C)=O)c4cc(Nc5cncnc5)ccc43)cc2C1=O` [Compound 23, (2S,4R)-1-(2-(3-acetyl-5-(pyrimidin-5-ylamino)-1H-indol-1-yl)acetyl)-N-(2-ethyl-3-oxoisoindolin-5-yl)-4-fluoropyrrolidine-2-carboxamide] and `CC(=O)c1cn(CC(=O)N2C[C@H](F)C[C@H]2C(=O)Nc2ccc3cn[nH]c3c2)c2ccc(Nc3cncnc3)cc12` [Compound 25, (2S,4R)-1-(2-(3-acetyl-5-(pyrimidin-5-ylamino)-1H-indol-1-yl)acetyl)-4-fluoro-N-(1H-indazol-6-yl)pyrrolidine-2-carboxamide] cannot be ordered by pIC50: over 6.00 for the first, over 6.00 for the second.

`CC(=O)c1cn(CC(=O)N2C[C@H](F)C[C@H]2C(=O)Nc2cccc3c2OC(C)(C)C3)c2ccc(Nc3cncnc3)cc12` [Compound 24, (2S,4R)-1-(2-(3-acetyl-5-(pyrimidin-5-ylamino)-1H-indol-1-yl)acetyl)-N-(2,2-dimethyl-2,3-dihydrobenzofuran-7-yl)-4-fluoropyrrolidine-2-carboxamide] and `CC(=O)c1cn(CC(=O)N2C[C@H](F)C[C@H]2C(=O)Nc2ccc(F)c(-c3nnc4n3CCCCC4)c2)c2ccc(Nc3cncnc3)cc12` [Compound 26, (2S,4R)-1-(2-(3-acetyl-5-(pyrimidin-5-ylamino)-1H-indol-1-yl)acetyl)-4-fluoro-N-(4-fluoro-3-(6,7,8,9-tetrahydro-5H-[1,2,4]triazolo[4,3-a]azepin-3-yl)phenyl)pyrrolidine-2-carboxamide] cannot be ordered by pIC50: over 6.00 for the first, over 6.00 for the second.

For `CC(=O)c1cn(CC(=O)N2C[C@H](F)C[C@H]2C(=O)NC2CCCc3nc(-c4ccc(F)cc4)sc32)c2ccc(Nc3cncnc3)cc12` (stereo partly drawn) [Compound 28, (2S,4R)-1-(2-(3-acetyl-5-(pyrimidin-5-ylamino)-1H-indol-1-yl)acetyl)-4-fluoro-N-(2-(4-fluorophenyl)-4,5,6,7-tetrahydrobenzo[d]thiazol-7-yl)pyrrolidine-2-carboxamide], the pIC50 was under 5.00.
